The values that follow come from patent US20230043863A1, “HETEROAROMATIC DERIVATIVES FOR USE AS REGULATOR, PREPARATION METHOD THEREFOR AND USE THEREOF” (JIANGSU HANSOH PHARMACEUTICAL GROUP CO., LTD., priority 2018, published 2023).

For one experiment, the target named is TYK2 (Homo sapiens, UniProt P29597). Kind of experiment: JAK kinase activity inhibition, TR-FRET (TYK2). In kind it is biochemical. Particulars: TR-FRET kinase assay. On the procedure: (§1) Experimental objective: The objective of this test is to test the inhibitory effect of the compound on JAK kinase activity.
(§2) Experimental method: the fluorescence resonance energy transfer (TR-FRET) method was used to test the inhibitory effect of the compound on JAK kinase activity, and the half inhibitory concentration IC50 of the compound on JAK kinase activity was obtained.
(§3) Kinase reaction was carried out in a white 384-well plate (PerkinElmer). 1-5 μL of different concentrations of the compound diluted with DMSO and ddH2O was added into each well, and 1-5 μL of the corresponding solvent was added to the positive control wells, followed by addition of 0.1-20 nM JAK kinase solution diluted with 1-5 μL of kinase buffer (HEPES 50-250 mM, MgCl2 5-20 mM, etc.) was added to each well. 1-5 μL of kinase buffer was added to the negative control well. 1-5 μL of substrate mixture containing peptide substrate and ATP was added. The plate was incubated at room temperature for 0.5-5 hours. […], EDTA and detection solution containing labeled antibody was added, and then the plate was incubated at room temperature for another 1-24 hours. The fluorescence signal value at about 620 nm and 665 nm of each well was measured by BioTek Synergy H1 plate reader, and the inhibition rate was calculated by the fluorescence signal value. According to the inhibition rate of different concentrations, the IC50 of the compound was obtained by curve fitting.
(§4) The percentage inhibition data of the wells treated with the compound was calculated with the positive control wells (DMSO control wells) and negative control wells (no kinase added) on the plate {% inhibition rate=100-[(test compound value-negative control value)]/(Positive control value-negative control value)×100}. IC50 value was calculated by using GraphPad prism to fit the data of different concentrations and corresponding percentage inhibition rates to a 4-parameter non-linear logic formula.
A general note: In TR-FRET formats the signal depends on donor and acceptor labels being close together.

The next experiment addresses JAK1 (Homo sapiens, UniProt P23458). Kind of experiment: JAK kinase activity inhibition, TR-FRET (JAK1). Type of experiment: biochemical. The note with it: TR-FRET kinase assay. On the procedure: as §1, §2, §3, §4

Chain of JAK1 (P23458 whole entry): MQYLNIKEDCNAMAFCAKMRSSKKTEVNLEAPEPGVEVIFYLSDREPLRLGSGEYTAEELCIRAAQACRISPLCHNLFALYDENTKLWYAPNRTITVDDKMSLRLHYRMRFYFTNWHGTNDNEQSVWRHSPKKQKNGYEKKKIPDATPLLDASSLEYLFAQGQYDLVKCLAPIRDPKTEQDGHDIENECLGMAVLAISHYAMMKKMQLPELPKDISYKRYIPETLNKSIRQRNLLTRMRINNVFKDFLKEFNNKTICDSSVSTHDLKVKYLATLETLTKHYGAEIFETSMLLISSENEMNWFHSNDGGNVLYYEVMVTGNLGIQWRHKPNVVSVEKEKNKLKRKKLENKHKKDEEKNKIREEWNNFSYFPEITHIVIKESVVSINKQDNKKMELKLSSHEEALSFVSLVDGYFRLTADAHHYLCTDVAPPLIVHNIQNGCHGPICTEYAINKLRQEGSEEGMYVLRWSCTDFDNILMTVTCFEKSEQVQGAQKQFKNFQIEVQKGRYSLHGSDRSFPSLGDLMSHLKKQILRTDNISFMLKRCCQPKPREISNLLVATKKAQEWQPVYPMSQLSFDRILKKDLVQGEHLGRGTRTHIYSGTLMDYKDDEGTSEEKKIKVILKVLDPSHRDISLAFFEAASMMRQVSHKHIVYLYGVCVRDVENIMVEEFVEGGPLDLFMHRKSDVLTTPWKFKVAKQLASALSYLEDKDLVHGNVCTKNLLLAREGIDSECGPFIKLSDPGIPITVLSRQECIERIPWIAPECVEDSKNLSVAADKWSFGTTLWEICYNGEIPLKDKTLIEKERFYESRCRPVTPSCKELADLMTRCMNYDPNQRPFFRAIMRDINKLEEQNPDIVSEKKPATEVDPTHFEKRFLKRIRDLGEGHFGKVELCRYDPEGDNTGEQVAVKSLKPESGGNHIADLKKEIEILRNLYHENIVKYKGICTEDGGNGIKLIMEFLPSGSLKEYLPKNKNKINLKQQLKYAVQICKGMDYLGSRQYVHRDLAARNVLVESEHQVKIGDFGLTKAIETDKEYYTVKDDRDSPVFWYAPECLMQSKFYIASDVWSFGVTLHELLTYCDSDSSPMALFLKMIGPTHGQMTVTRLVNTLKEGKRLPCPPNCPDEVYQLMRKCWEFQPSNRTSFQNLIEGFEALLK
Chain of TYK2 (P29597 whole entry): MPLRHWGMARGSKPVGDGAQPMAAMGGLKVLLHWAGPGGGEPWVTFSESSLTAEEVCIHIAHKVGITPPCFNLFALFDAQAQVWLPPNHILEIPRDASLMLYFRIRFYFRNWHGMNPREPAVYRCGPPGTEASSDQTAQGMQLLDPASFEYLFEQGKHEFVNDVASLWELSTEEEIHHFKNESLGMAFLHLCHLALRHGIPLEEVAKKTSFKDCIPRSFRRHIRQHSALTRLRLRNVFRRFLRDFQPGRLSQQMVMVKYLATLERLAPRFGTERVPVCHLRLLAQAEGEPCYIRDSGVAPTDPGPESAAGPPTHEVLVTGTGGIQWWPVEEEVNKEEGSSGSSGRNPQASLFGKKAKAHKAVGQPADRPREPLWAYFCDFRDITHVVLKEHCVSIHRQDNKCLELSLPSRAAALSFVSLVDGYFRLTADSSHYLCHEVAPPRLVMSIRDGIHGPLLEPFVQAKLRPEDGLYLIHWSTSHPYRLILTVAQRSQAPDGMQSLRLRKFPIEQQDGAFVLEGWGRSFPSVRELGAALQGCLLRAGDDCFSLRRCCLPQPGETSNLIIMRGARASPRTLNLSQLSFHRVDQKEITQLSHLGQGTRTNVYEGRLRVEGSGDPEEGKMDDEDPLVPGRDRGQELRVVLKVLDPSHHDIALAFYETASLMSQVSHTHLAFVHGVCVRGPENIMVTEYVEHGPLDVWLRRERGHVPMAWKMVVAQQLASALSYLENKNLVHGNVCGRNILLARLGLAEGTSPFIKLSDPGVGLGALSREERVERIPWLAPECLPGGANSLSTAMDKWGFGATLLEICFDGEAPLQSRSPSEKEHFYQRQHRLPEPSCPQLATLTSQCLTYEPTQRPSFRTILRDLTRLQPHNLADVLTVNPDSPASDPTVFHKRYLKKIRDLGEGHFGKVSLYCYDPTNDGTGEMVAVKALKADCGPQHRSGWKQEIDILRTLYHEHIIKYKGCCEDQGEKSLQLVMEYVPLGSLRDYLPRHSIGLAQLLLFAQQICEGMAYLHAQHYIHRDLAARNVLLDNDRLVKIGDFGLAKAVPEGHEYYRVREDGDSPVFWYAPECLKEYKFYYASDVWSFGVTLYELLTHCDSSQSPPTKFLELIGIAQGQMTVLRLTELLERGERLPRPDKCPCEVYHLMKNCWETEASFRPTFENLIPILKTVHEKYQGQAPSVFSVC

In general, IC50 refers to the concentration at which inhibition is half-maximal. Consider `COc1ccc(-c2ccc3c(Nc4cc(C)[nH]n4)nc(N[C@@H]4C[C@H]5CC[C@@H](C4)N5CCC#N)nc3c2)cn1` [Embodiment 183, 3-((3-exo)-3-((7-(6-methoxylpyridin-3-yl)-4-((5-methyl-1H-pyrazol-3-yl)amino)quinazolin-2-yl)amino)-8-azabicyclo[3.2.1]oct-8-yl)propionitrile], for which the IC50 was determined as 0.1 nM at TYK2 and 0.18 nM on JAK1.

Turning to `Cc1cc(Nc2nc(N[C@@H]3C[C@H]4CC[C@@H](C3)N4CCC#N)nc3cc(-c4ccccc4)ccc23)n[nH]1` [Embodiment 184, 3-((3-exo)-3-((4-((5-methyl-1H-pyrazol-3-yl)amino)-7-phenylquinazolin-2-yl)amino)-8-azabicyclo[3.2.1]oct-8-yl)propionitrile], the IC50 was 0.48 nM on TYK2 and 0.14 nM on JAK1.

As for `Cc1cc(Nc2nc(N[C@@H]3C[C@H]4CC[C@@H](C3)N4CCC#N)nc3cc(-c4cnn(C5CC5)c4)ccc23)n[nH]1` [Embodiment 185, 3-((3-exo)-3-((7-(1-cyclopropyl-1H-pyrazol-4-yl)-4-((5-methyl-1H-pyrazol-3-yl)amino)quinazolin-2-yl)amino)-8-azabicyclo[3.2.1]oct-8-yl)propionitrile], the figures for the IC50 on TYK2 and on JAK1 were 0.6 nM and 0.29 nM, respectively.

As for `Cc1cc(Nc2nc(N[C@@H]3C[C@H]4CC[C@@H](C3)N4CCC#N)nc3cc(-n4ccnc4)ccc23)n[nH]1` [Embodiment 203, 3-((3-exo)-3-((7-(1H-imidazol-1-yl)-4-((5-methyl-1H-pyrazol-3-yl)amino)quinazolin-2-yl)amino)-8-azabicyclo[3.2.1]oct-8-yl)propionitrile], the IC50 on TYK2 was determined as 0.19 nM; on JAK1, 0.23 nM.

As to `Cc1cc(Nc2nc(N[C@@H]3C[C@H]4CC[C@@H](C3)N4S(=O)(=O)N3CC(C#N)C3)nc3cc(C4CC4)ccc23)n[nH]1` [Embodiment 216, 1-(((3-exo)-3-((7-cyclopropyl-4-((5-methyl-1H-pyrazol-3-yl)amino)quinazolin-2-yl)amino)-8-azabicyclo[3.2.1]oct-8-yl)sulfonyl)azetindin-3-formonitrile], the IC50 on TYK2 turned out to be 0.48 nM; at JAK1, 0.04 nM.

Take `Cc1cnc(Nc2nc(N[C@@H]3C[C@H]4CC[C@@H](C3)N4S(=O)(=O)N3CC(C#N)C3)nc3ccccc23)s1` [Embodiment 221, 1-(((3-exo)-3-((4-((5-methylthioazole-2-yl)amino)quinazolin-2-yl)amino)-8-azabicyclo[3.2.1]oct-8-yl)sulfonyl)azetindin-3-formonitrile]: the IC50 on TYK2 was 1.26 nM; on JAK1, 0.79 nM.

Regarding `Cc1cc(Nc2nc(N[C@@H]3C[C@H]4CC[C@@H](C3)N4C(=O)CN(C)C)nc3cc(Cl)ccc23)n[nH]1` [Embodiment 224], the IC50 on TYK2 is above 100 nM; at JAK1 it was 1.76 nM.

`Cc1cc(Nc2nc(N[C@@H]3C[C@H]4CC[C@@H](C3)N4C(=O)CN(C)C)nc3ccccc23)n[nH]1` [Embodiment 225, 2-(dimethylamine)-1-((3-exo)-3-((4-((5-methyl-1H-pyrazol-3-yl)amino)quinazolin-2-yl)amino)-8-azabicyclo[3.2.1]oct-8-yl)ethane-1-one]: the figures for the IC50 on TYK2 and on JAK1 were 0.94 nM and 9.16 nM, respectively.

Take `Cc1cc(Nc2nc(N[C@@H]3C[C@H]4CC[C@@H](C3)N4C(=O)c3ccccn3)nc3ccccc23)n[nH]1` [Embodiment 226, ((3-exo)-3-((4-((5-methyl-1H-pyrazol-3-yl)amino)quinazolin-2-yl)amino)-8-azabicyclo[3.2.1]oct-8-yl)(pyridin-2-yl)methanone]: the IC50 on TYK2 is 0.3 nM; at JAK1, 13.1 nM.

`Cc1cc(Nc2nc(N[C@@H]3C[C@H]4CC[C@@H](C3)N4C(=O)c3cccnc3)nc3ccccc23)n[nH]1` [Embodiment 227, ((3-exo)-3-((4-((5-methyl-1H-pyrazol-3-yl)amino)quinazolin-2-yl)amino)-8-azabicyclo[3.2.1]oct-8-yl)(pyridin-3-yl)methanone]: the IC50 was 4.77 nM on TYK2 and 5.17 nM at JAK1.

On to `Cc1cc(Nc2nc(N[C@@H]3C[C@H]4CC[C@@H](C3)N4C(=O)c3ccncc3)nc3ccccc23)n[nH]1` [Embodiment 228, ((3-exo)-3-((4-((5-methyl-1H-pyrazol-3-yl)amino)quinazolin-2-yl)amino)-8-azabicyclo[3.2.1]oct-8-yl)(pyridin-4-yl)methanone], for which the values for the half-maximal inhibitory concentration (IC50) at TYK2 and on JAK1 were 9.99 nM and 2.63 nM, respectively.

On to `Cc1cc(Nc2nc(N[C@@H]3C[C@H]4CC[C@@H](C3)N4C(=O)C(F)F)nc3ccccc23)n[nH]1` [Embodiment 231, 2,2-difluoro-1-((3-exo)-3-((4-((5-methyl-1H-pyrazol-3-yl)amino)quinazolin-2-yl)amino)-8-azabicyclo[3.2.1]oct-8-yl)ethane-1-one], for which the IC50 was found to be 3.78 nM at TYK2 and 11.3 nM on JAK1.

On to `Cc1cc(Nc2nc(N[C@@H]3C[C@H]4CC[C@@H](C3)N4S(=O)(=O)c3cccnc3)nc3ccccc23)n[nH]1` [Embodiment 232], for which the IC50 on TYK2 came to 2 nM; at JAK1, 7.2 nM.

In the case of `COCCS(=O)(=O)N1[C@@H]2CC[C@H]1C[C@H](Nc1nc(Nc3cc(C)[nH]n3)c3ccccc3n1)C2` [Embodiment 233, N2-((3-exo)-8-((2-methoxylethyl)sulfonyl)-8-azabicyclo[3.2.1]oct-3-yl)-N4-(5-methyl-1H-pyrazol-3-yl)quinazolin-2,4-diamine], the IC50 came to 2.09 nM on TYK2 and 3.55 nM on JAK1.

For the molecule `Cc1cc(Nc2nc(N[C@@H]3C[C@H]4CC[C@@H](C3)N4CCF)nc3ccccc23)n[nH]1` [Embodiment 234], the IC50 on TYK2 was 7.11 nM; at JAK1, 112 nM.

Turning to `CN(c1nc(Nc2cc(CO)[nH]n2)c2ccc(Cl)cc2n1)[C@@H]1C[C@H]2CC[C@@H](C1)N2CCC#N` [Embodiment 236, 3-((3-exo)-3-((7-chloro-4-((5-(hydroxymethyl)-1H-pyrazol-3-yl)amino)quinazolin-2-yl)(methyl)amino)-8-azabicyclo[3.2.1]oct-8-yl)propionitrile], the IC50 on TYK2 stood at 4.77 nM; at JAK1, 8.81 nM.

`Cc1cc(Nc2nc(N[C@@H]3C[C@H]4CC[C@@H](C3)N4C(=O)[C@@H]3CCCN3)nc3sccc23)n[nH]1` [Embodiment 249, ((3-exo)-3-((4-((5-methyl-1H-pyrazol-3-yl)amino)thieno[2,3-d]pyrimidin-2-yl)amino)-9-azabicyclo[3.3.1]non-9-yl) ((S)-pyrrolidin-2-yl)methanone]: the values for the IC50 on TYK2 and on JAK1 were 0.28 nM and 1.88 nM, respectively.

In the case of `Cc1cc(Nc2nc(N[C@@H]3C[C@H]4CC[C@@H](C3)N4S(=O)(=O)c3ccccn3)nc3sccc23)n[nH]1` [Embodiment 266, N4-(5-methyl-1H-pyrazol-3-yl)-N2-((3-exo)-8-(pyridin-2-ylsulfonyl)-8-azabicyclo[3.2.1]oct-3-yl)thieno[2,3-d]pyrimidin-2,4-diamine], the half-inhibitory concentration (IC50) at TYK2 stood at 10.2 nM; on JAK1 it was 10.5 nM.

For the molecule `Cc1cc(Nc2nc(N[C@@H]3C[C@H]4CCC[C@@H](C3)N4S(=O)(=O)c3nccn3C)nc3sccc23)n[nH]1` [Embodiment 269], the IC50 on TYK2 turned out to be 3.08 nM; on JAK1, 3.22 nM.

Consider `Cc1cc(Nc2nc(N[C@@H]3C[C@H]4CC[C@@H](C3)N4S(=O)(=O)N3CC(C#N)C3)nc3cc(C)sc23)n[nH]1` [Embodiment 286, 1-(((3-exo)-3-((6-methyl-4-((5-methyl-1H-pyrazol-3-yl)amino)thieno[3,2-d]pyrimidin-2-yl)amino)-8-azabicyclo[3.2.1]oct-8-yl)sulfonyl)azetindin-3-formonitrile], for which the IC50 on TYK2 worked out at 14 nM; at JAK1, 0.06 nM.

On to `Cc1cc(Nc2nc(N[C@@H]3C[C@@H]4CN(CCC#N)C[C@@H]4C3)nc3ccccc23)n[nH]1` [Embodiment 300, 3-(cis-5-((4-((5-methyl-1H-pyrazol-3-yl)amino)quinazolin-2-yl)amino)hexahydrocyclopentadieno[c]pyrrole-2(1H)-yl)propionitrile], for which the IC50 at TYK2 is 14.7 nM; at JAK1, 5.11 nM.

On to `Cc1cc(Nc2nc(NC3CCN(S(=O)(=O)N4CC(C#N)C4)CC3)nc3sccc23)n[nH]1` [Embodiment 302, 1-((4-((4-((5-methyl-1H-pyrazol-3-yl)amino)thieno[2,3-d]pyrimidin-2-yl)amino)piperidin-1-yl)sulfonyl)azetindin-3-formonitrile], for which the IC50 at TYK2 stood at 0.34 nM; on JAK1 it was 1.89 nM.

As for `Cc1cc(Nc2nc(NC3CCN(S(=O)(=O)N4CC(C#N)C4)CC3)nc3ccccc23)n[nH]1` [Embodiment 311, 1-((4-((4-((5-methyl-1H-pyrazol-3-yl)amino)quinazolin-2-yl)amino)piperidin-1-yl)sulfonyl)azetindin-3-formonitrile], the IC50 at TYK2 stood at 1.44 nM; on JAK1, 7.5 nM.
